This is an account of results in patent US6518304B1, “Fungicidal composition” (Sumitomo Chemical Company, Limited, priority 1993, dated 2003).

Experiment [1] concerns grape downy mildew fungus. Briefly: Test Example 9: grape downy mildew, foliage application then inoculation. The note with it: grape seedling.
Protocol: (§1) Each of plastic pots was filled with sandy loam and sown with grape (Berry A), followed by growing in a greenhouse for 40 days. […] Then, the young seedling was inoculated with a suspension of zoosporangia of grape downy mildew fungus by spraying. After the inoculation, the young seedling was allowed to stand overnight at 23° C. and a high humidity and then grown in a greenhouse for 7 days, after which the infection rate (%) was investigated.
For experiment [2], the system named is apple scab fungus. Briefly: Test Example 13: apple scab, foliage application then inoculation. The note with it: apple seedling. The class given is in vivo, Venturia inaequalis.
Experiment [3] relates to gray mold fungi tolerant to benzimidazole type fungicidal compounds. As to the kind of experiment: Test Example 12: cucumber gray mold, benzimidazole-tolerant (resistant) fungus. The note with it: cucumber seedling.
Protocol: Each of plastic pots was filled with sandy loam and sown with cucumber (Sagamihanjiro), followed by growing in a greenhouse for 14 days. […] After air-drying, each of gray mold fungi sensitive and tolerant, respectively, to benzimidazole type fungicidal compounds was inoculated on the surfaces of leaves of the young seedling, and the young seedling was grown in the dark at 10° C. and a high humidity for 4 days, after which the infection rate (%) was investigated.
Experiment [4] concerns gray mold fungi sensitive to benzimidazole type fungicidal compounds. As to the kind of experiment: Test Example 12: cucumber gray mold, benzimidazole-sensitive fungus. The note with it: cucumber seedling.
Protocol: Each of plastic pots was filled with sandy loam and sown with cucumber (Sagamihanjiro), followed by growing in a greenhouse for 14 days. A wettable powder of test agents prepared according to Formulation Example 41 was diluted to a predetermined concentration with water, and foliage application of the dilution was carried out so as to adhere the dilution sufficiently to the surfaces of leaves of the grown cucumber young seedling. After air-drying, each of gray mold fungi sensitive and tolerant, respectively, to benzimidazole type fungicidal compounds was inoculated on the surfaces of leaves of the young seedling, and the young seedling was grown in the dark at 10° C. and a high humidity for 4 days, after which the infection rate (%) was investigated.
Experiment [5] relates to grape downy mildew fungus. As to the kind of experiment: Test Example 6: grape downy mildew, foliage application then inoculation. The note with it: 30 ppm; grape seedling.
Protocol: as §1
The subject of experiment [6] is tomato late blight fungus. The class given is in vivo, Phytophthora infestans. The note with it: 40 ppm; tomato seedling.
For experiment [7], the system named is grape powdery mildew fungus (Uncinula necator). As to the kind of experiment: Test Example 16: grape powdery mildew, spray then inoculation. It counts as in vivo. The note with it: grape plant, 3 weeks at 24° C.
The test system of experiment [8] is tomato late blight fungus (Phytophthora infestans). The class given is in vivo. The note with it: tomato plant, 1 week at 24° C.
The test system of experiment [9] is gray mold fungus. Briefly: Test Example 11: cucumber gray mold, foliage application before inoculation. The note with it: cucumber seedling.
Protocol: Each of plastic pots was filled with sandy loam and sown with cucumber (Sagamihanjiro), followed by growing in a greenhouse for 14 days. A wettable powder of test agents prepared according to Formulation Example 35 was diluted to a predetermined concentration with water, and foliage application of the dilution was carried out so as to adhere the dilution sufficiently to the surfaces of leaves of the grown cucumber young seedling. After air-drying, gray mold fungus was inoculated on the surfaces of leaves of the young seedling, and the young seedling was grown in the dark at 10° C. and a high humidity for 4 days, after which the infection rate (%) was investigated.
Experiment [10] relates to grape downy mildew fungus. Briefly: Test Example 7: grape downy mildew, foliage application then inoculation. The note with it: 200 ppm; grape seedling.
Protocol: as §1
Experiment [11] concerns gray mold fungus. Briefly: Test Example 4: cucumber gray mold, foliage application after inoculation. The note with it: 10 ppm; cucumber seedling, applied after inoculation.
Protocol: Each of plastic pots was filled with sandy loam and sown with cucumber (Sagamihanjiro), followed by growing in a greenhouse for 14 days. Gray mold fungus was inoculated on the surfaces of leaves of the grown cucumber young seedling, and the young seedling was grown in the dark at 10° C. and a high humidity for 2 days and then at a temperature of 23° C. for 3 days. A wettable powder of test agents prepared according to Formulation Example 11 was diluted to a predetermined concentration with water, and foliage application of the dilution was carried out so as to adhere the dilution sufficiently to the surfaces of leaves of the cucumber young seedling. After the spraying, the young seedling was grown in the dark at 10° C. and a high humidity for 3 days, and then the infection rate (%) was investigated.
Experiment [12] relates to gray mold fungus. As to the kind of experiment: Test Example 3: cucumber gray mold, foliage application before inoculation. The note with it: 10 ppm; cucumber seedling, applied before inoculation, 4 days.
Protocol: Each of plastic pots was filled with sandy loam and sown with cucumber (Sagamihanjiro), followed by growing in a greenhouse for 14 days. A wettable powder of test agents prepared according to Formulation Example 11 was diluted to a predetermined concentration with water, and foliage application of the dilution was carried out so as to adhere the dilution sufficiently to the surfaces of leaves of the grown cucumber young seedling. After air-drying, gray mold fungus was inoculated on the surfaces of leaves of the young seedling, and the young seedling was grown in the dark at 10° C. and a high humidity for 4 days, after which the infection rate (%) was investigated.
The test system of experiment [13] is tomato late blight fungus (Phytophthora infestans). It counts as in vivo. The note with it: 50 ppm; tomato plant, 1 week at 24° C.
The subject of experiment [14] is grape downy mildew fungus (Plasmopara viticola). As to the kind of experiment: Test Example 2: grape downy mildew, spray then inoculation, infection rate. The note with it: 50 ppm; grape plant, 1 week at 24° C. It counts as in vivo. The source says:
A grape plant (cultivar: Berry A) was planted in each pot and was sprayed with a sufficient volume of a dilution with a predetermined concentration of a wettable powder obtained according to Formulation Example 5, after the plant put out a fourth leaf.

Like-named read-outs stand apart in the source and are kept apart here.

Turning to `COC(=O)[C@H](C)N(C(=O)Cc1ccccc1)c1c(C)cccc1C` [Benalaxyl, methyl N-(2,6-dimethylphenyl)-N-(phenylacetyl)alaninate], the “Infection rate (%)” value in experiment [1] (1 ppm) is listed as 25%. Regarding `CCCCNC(=O)n1c(NC(=O)OC)nc2ccccc21` [Benomyl, methyl 1-(butylcarbamoyl)-2-benzimidazole-carbamate, reference compound], in [2] (20 ppm), the “Infection rate (%)” value was found to be 25%. The “Infection rate (%) Resistant fungus” value in experiment [3] (10 ppm) worked out at 100%. For the same compound, the “Infection rate (%) Sensitive fungus” value in experiment [4] (10 ppm) came out at 20%. Consider `N#Cc1c(Cl)c(Cl)c(Cl)c(C#N)c1Cl` [Chlorothalonil, tetrachloroisophthalonitrile, reference compound], for which the “Infection rate (%)” value in [5] and in [6] was 20% each time. For the compound `[Cl-].[Cu+2].[Cu+2].[OH-].[OH-].[OH-]` [Copper oxychloride, reference compound], the “Infection rate (%)” value is listed as 30% in [7] (500 ppm) and 25% in experiment [8] (500 ppm). As for `[Cu+2].[O-]c1cccc2cccnc12.[O-]c1cccc2cccnc12` [Copper oxyquinolinolate, copper oxyquinolinolate (8-hydroxyquinolinate), reference compound], the “Infection rate (%)” value in experiment [7] (200 ppm) and in experiment [8] (50 ppm) was 25% throughout.

For the compound `CCNC(=O)NC(=O)C(C#N)=NOC` [Cymoxanil, 2-cyano-N-[ethylaminocarbonyl]-2-(methoxyimino)acetamide], in [1] (40 ppm), the “Infection rate (%)” value was determined as 20%. Consider `O=[N+]([O-])c1cc(C(F)(F)F)c(Cl)c([N+](=O)[O-])c1Nc1ncc(C(F)(F)F)cc1Cl` [Fluazinam, 3-chloro-N-(3-chloro-5-trifluoromethyl-2-pyridyl)-α,α,α-trifluoro-2,6-dinitro-p-toluidine, reference compound], for which the “Infection rate (%)” value in [9] (1 ppm) is given as 25%.

As for `N#Cc1c[nH]cc1-c1cccc2c1OC(F)(F)O2` [Fludioxonil, 4-(2,2-difluoro-1,3-benzodioxol-4-yl)-1H-pyrrole-3-carbonitrile, reference compound], the “Infection rate (%)” value in experiment [9] (0.5 ppm) was found to be 20%. `O=C1c2ccccc2C(=O)N1SC(Cl)(Cl)Cl` [Folpet, N-(trichloromethylthio)phthalimide, reference compound]: the “Infection rate (%)” value in [10] came to 20%. Consider `CCO[PH](=O)O` [Fosetyl aluminum, ethyl hydrogenphosphonate], for which, in experiment [1] (100 ppm), the “Infection rate (%)” value came out at 25%. On to `CC#Cc1cc(C)nc(Nc2ccccc2)n1` [Mepanipyrim, 2-anilino-4-methyl-6-(1-propynyl)pyrimidine, reference compound], for which the “Infection rate (%)” value in experiment [9] (5 ppm) is 20%.

On to `COCC(=O)N(c1c(C)cccc1C)N1CCOC1=O` [Oxadixyl, 2-methoxy-N-(2-oxo-1,3-oxazolidin-3-yl)aceto-2′,6′-xylidide], for which, in [1] (5 ppm), the “Infection rate (%)” value is reported as 20%. Regarding `CC12CC1(C)C(=O)N(c1cc(Cl)cc(Cl)c1)C2=O` (stereo not drawn) [Procymidone, N-(3,5-dichlorophenyl)-1,2-dimethylcyclopropane-1,2-dicarboxyimide, reference compound], the “Infection rate (%)” value in experiment [11] and in experiment [12] was 25% each time. On to `Cc1cc(C)nc(Nc2ccccc2)n1` [Pyrimetanil, 2-anilino-4,6-dimethylpyrimidine, reference compound], for which, in experiment [9] (10 ppm), the “Infection rate (%)” value worked out at 20%.

`c1ccc2[nH]c(-c3cscn3)nc2c1` [Thiabendazole, 2-(4′-thiazolyl)benzimidazole, reference compound]: the “Infection rate (%) Resistant fungus” value in experiment [3] (30 ppm) is on record as 100%. The “Infection rate (%) Sensitive fungus” value in experiment [4] (30 ppm) was 25%. With `COC(=O)NC(=S)Nc1ccccc1NC(=S)NC(=O)OC` [Thiophanate-methyl, 1,2-bis(3-methoxycarbonyl-2-thioureido)benzene, reference compound], the “Infection rate (%)” value in experiment [2] (10 ppm) is recorded as 20%. In experiment [3] (10 ppm), the “Infection rate (%) Resistant fungus” value amounted to 100%. Further, the “Infection rate (%) Sensitive fungus” value in experiment [4] (10 ppm) worked out at 25%.

For the compound Mancozeb [reference compound], the “Infection rate (%)” value in [13] and in [14] was 25% each time.
